Tests used:
[1] = test system: U266 cells; test: MM xenograft (U266 cells, subcutaneous) in NSG mice; format: in vivo; details: 5 mg/kg WIN-55,212-2 intraperitoneally every 24 h or 48 h
Experimental: NOD/scid/IL-2R gammae null (NSG) mice were purchased from Charles River Laboratories International (L'Arbresle, France) and maintained with food and water ad libitum, under specific pathogen-free conditions. When mice were 8-9 weeks old, human tumor xenografts were induced by subcutaneous inoculation in suprascapular area of MM cell line U266 cells. To establish tumor, 5×10e6 cells were resuspended in 100 ul RPMI medium without serum and 100 ul of Matrigel (BD Biosciences). To easy visualization the hair was trimmed from the site of inoculation. Closely second week following implantation, when tumors became palpable (>0.5 cm), mice were randomly assigned to the following groups (10 mice per group): group 1 received intraperitoneally 5 mg/kg WIN-55,212-2 every 24 h, group 2 received the treatment every 48 hl and group 3 received vehicle. […] Tumor growth was assessed three times each week following tumor implantation. Two bisecting diameters of each tumor were measured with calipers, and the volume was calculated using the formula length x (width) e2×0.4 mm3. […]
The administration with cannabinoids inhibits remarkably the growth of tumor in vivo. Finally, we analyzed the anti-tumor effect of the cannabinoids in vivo, using a model of human MM xenografted in immunodeficient mice NOD/SCID. […]

[2] = test system: HL60 cells; test: SPT expression, ceramide staining and SPT inhibition in HL60 cells; format: cell-based, human
Experimental: Extracted proteins (15-25 ug/well) were separated by sodium dodecyl sulfate-polyacrylamide gel electrophoresis (SDS/PAGE) in pre-cast polyacrylamide gels AnykD (Bio-Rad Laboratories, Hercules, Calif., USA) under reducing and denaturing conditions. Electrophoretic run was performed at a constant current of 15 mA per gel in a Mini-Protean® Tetra Cell (Bio-Rad Laboratories) and were electrophoretically transferred onto PVDF membranes using Trans-Blot® Turbo™ System (Bio-Rad Laboratories). Blocking was performed with 2% bovine serum albumin [(BSA), Santa Cruz Biotechnology] in Tween-Tris buffer saline (TTBS). Membranes were incubated overnight at 4° C. with corresponding primary antibody in TTBS.
Cells were grown on glass cover slips (Menzel-Glaser, Thermo Fisher Scientific) in the presence or absence of WIN 55,212-2. The cover slips were then washed twice in phosphate-buffered saline (PBS), and the cells were fixed in cold 4% paraformaldehyde for 10 min, treated with sodium borohydride and, permeabilized in 0.02% Triton X-100 in PBS with 10% normal donkey serum for blocking. Cell nuclei were stained with diamidino-2-phenylindole [(DAPI), Pierce, Thermo Fisher Scientific)]. Then, cells were incubated with the anti-CB1 or anti-CB2 receptor antibodies or anti-ceramide in blocking buffer overnight at 4° C. in a humid chamber (Simport, Beloeil, QC, Canada). After washing with PBS, samples were further incubated for 90 min with Alexa 647- or Alexa 488-conjugated donkey secondary antibody.
After final washing in PBS, the cover slips were dried and mounted on slides using Fluoromount Aqueous Mounting Medium (Sigma-Aldrich). Changes in the protein expression were visualized by fluorescence microscopy using a specific excitation for each antibody. Digital images were acquired with CellSens Dimension Software (Olympus) and manipulated with Photoshop CS2 Software (Adobe Systems Inc). There was no labeling when the primary antibody was omitted (data not shown).
Additionally, de novo synthesis of ceramides also contribute to the apoptotic process triggered by cannabinoids in AML. We examined whether ceramides participate in the cannabinoid-induced apoptosis in leukemic cells. To this end, we analyzed the expression of serine palmitoyltransferase (SPT), the enzyme that catalyses the rate-limiting step of ceramide synthesis de novo. […] To ensure that this up-regulation of SPT entails an increased of ceramide synthesis, we examined the expression of ceramide by immunohistochemistry. […] Furthermore, to strengthen the engagement of the ceramide in cannabinoid-induced apoptosis, we analyzed the cannabinoid-induce apoptosis after inhibition of ceramide synthesis with Myoricin, a selective SPT inhibitor.

CS(=O)(=O)O.Cc1c(C(=O)c2cccc3ccccc23)c2cccc3c2n1[C@H](CN1CCOCC1)CO3 [WIN-55, (R)-(+)-[2,3-dihydro-5-methyl-3-(4-morpholinylmethyl)-pyrrolo-[1,2,3]-1,4-benzoxazin-6-yl]-1-naphthalenylmethanone mesylate]
tumor volume / tumor growth compared to vehicle-treated counterparts [1]: inhibit tumor growth
SPT expression level in leukemic cells ([2]; HL60): enhanced
SPT, 2 h after exposure ([2]; HL60): moderate increase
ceramide by immunohistochemistry, compared to untreated cells ([2]; HL60, 50 uM, 18 hours): remarkable increase

Reference: US20180353461A1, “USE OF CANNABINOIDS AS CERAMIDE-GENERATING ANTICANCER AGENTS IN TUMORS OF THE HEMATOPOIETIC AND LYMPHOID TISSUES” (priority 2014, published 2018)
